{
  "source": "patent US6420317B1",
  "about": "“Benzoylpyrazoles and their use as herbicides” (Aventis CropScience GmbH, priority 2000, dated 2002)",
  "test_in_all_cases": "Post-emergence herbicidal action on harmful plants (greenhouse)",
  "format_in_all_cases": "in vivo",
  "conditions_in_all_cases": "50 g a.i./ha, visual scoring after about 3 to 4 weeks",
  "key": {"Polygonum convolvulus": {"system": "Polygonum convolvulus", "protocol": "(§1) 1. Post-emergence herbicidal action on harmful plants\n(§2) Seeds of monocotyledonous and dicotyledonous harmful plants are placed in sandy loam soil in cardboard pots, covered with soil and grown in a greenhouse under good growth conditions. Two to three weeks after sowing, the test plants are treated at the three-leaf stage. The compounds according to the invention which were formulated as wettable powders or emulsion concentrate are sprayed, at one of the dosages given in Tables 1 to 5, onto the surface of the green parts of the plants at an application rate of from 600 to 800 1 of water/ha (converted). After the test plants had remained in the greenhouse for about 3 to 4 weeks under optimum growth conditions, the effect of the preparations is scored visually by comparison with compounds disclosed in the prior art. As shown by the results of Comparative Tables 1 to 4, the selected compounds according to the invention have better herbicidal activity against a broad spectrum of economically important monocotyledonous and dicotyledonous harmful plants than the compounds disclosed in the prior art."}, "Chenopodium album": {"system": "Chenopodium album", "protocol": "as §1, §2"}, "Stellaria media": {"system": "Stellaria media", "protocol": "as §1, §2"}},
  "data": [
    {"smiles": "Cc1nn(C)c(O)c1C(=O)c1ccc(S(C)(=O)=O)cc1", "note": "[Compound S2]", "values": [
      {"measurement": "Damage to the harmful plants in % POLCO", "setting": "Polygonum convolvulus", "result": 10, "unit": "%"},
      {"measurement": "Damage to the harmful plants in % CHEAL", "setting": "Chenopodium album", "result": 0, "unit": "%"},
      {"measurement": "Damage to the harmful plants in % STEME", "setting": "Stellaria media", "result": 10, "unit": "%"}
    ]}
  ]
}
